Laboratory results from publication PMC7381729, “A new class of PentixaFor- and PentixaTher-based theranostic agents with enhanced CXCR4-targeting efficiency” (Theranostics, 2020).
Like-named read-outs stand apart in the source and are kept apart here. Values belong to the molecule of their own block, whether it stands above or below them. Where a SMILES comes first, the peptide text is derived from it. Side-chain parts run from the residue outwards. [ ]: non-standard residue; d: D form. The star is where a group is joined. DOTA = O=C(O)CN1CCN(CC(=O)O)CCN(CC(=O)*)CCN(CC(=O)O)CC1; dTyr(3-I) = N[C@H](Cc1ccc(O)c(I)c1)C(=O)O; 2Nal = N[C@@H](Cc1ccc2ccccc2c1)C(=O)O; dNMeOrn = CN[C@H](CCCN)C(=O)O; 4Amb = NCc1ccc(C(=O)O)cc1; 4Abz = Nc1ccc(C(=O)O)cc1

Legend:
[1] = Lipophilicity, modified shake-flask method; assay type: physicochemical; conditions: O/PBS, radiolabeled compound, means ± SD (n=6)
Description: The lipophilicity (log PO/PBS) of the ^68Ga- and ^177Lu-labeled compounds in this study was determined via a modified shake-flask method.

[2] = tested on: Daudi (human B-cell lymphoma) xenograft bearing CB-17 SCID mice; experiment: Biodistribution in Daudi xenograft bearing mice; assay type: in vivo, mouse; conditions: for Biodistribution adrenals / Biodistribution blood / Biodistribution colon / Biodistribution femur / Biodistribution heart / Biodistribution kidney / Biodistribution liver / Biodistribution lung / Biodistribution muscle / Biodistribution small intestine / Biodistribution spleen / Biodistribution stomach / Biodistribution tumor (Daudi xenograft) / Biodistribution pancreas / Biodistribution brain: i.v., means ± SD; for Initial activity retained in the Daudi xenografts after 48h: 48h p.i. relative to early time point
Description: (§1) The biodistribution of selected compounds was investigated in Daudi (human B-cell lymphoma) xenograft bearing female CB-17 SCID mice (6-8 weeks, Charles River, Sulzfeld, Germany), [29]. All animal experiments were performed in accordance with current animal welfare regulations in Germany (approval #55.2-1-54-2532-71-13).
(§2) Animals (n=4-5 per group) were injected intravenously with 5-10 MBq (0.08-0.11 nmol peptide per mouse) of the respective ^68Ga- and^ 177Lu-labeled CXCR4 ligands in PBS (100 µL) into the tail vein under isoflurane anesthesia. CXCR4-specificity of binding was determined by coinjection of 50 µg AMD3100 per mouse. The animals were sacrificed 1, 6 and 48h post injection (p.i.), and the organs of interest were dissected. The radioactivity was measured in weighted tissue samples using a γ-counter. Data are expressed in % ID/g tissue (mean ± SD).

[3] = In vivo metabolite analysis (radio-HPLC); set-up: species or system mouse; conditions: CB17 SCID mice, 0.5h p.i., i.v. app. 35 MBq; radio-HPLC of extracts
Description: 68Ga-labeling was performed as published previously using a 68Ge/68Ga generator (iTHEMBA Labs, South Africa) and a GallElut + synthesis module (SCINTOMICS GmbH, Germany). Usually, 5 nmol of precursor peptide were used, yielding the 68Ga-labeled peptides in specific activities of 100 to 120 […]
For 177Lu-labeling, the peptides were dissolved in water to yield a 1 mM solution. Of this solution, the required volume was added to 177LuCl3 in 0.04 M HCl (ITG/ITM, Garching, Germany; activity concentration: 370 MBq/500 µl) to achieve a peptide-to -177Lu-activity ratio of 1 nmol peptide per 225 MBq 177LuCl3. To this mixture, 1 M NH4OAc was added (calculated to be 10% of total reaction volume), and the mixture was heated to 90°C for 4 0 min. […]
Human glioma U87 cells overexpressing CD4 and CXCR4 (U87CD4CXCR4) cells were kept in cultivation at least one week before starting the experiment. […] Perkin-Elmer’s LANCE cAMP assay kit (catalog #AD0262) based on time-resolved fluorescence resonance energy transfer (TR -FRET) was utilized to determine the ability of [natLu]DOTA -r -a -ABA -iodo CPCR4 and [ natLu]PentixaTher vs the reference CXCL12 to inhibit cAMP production induced by 5 µM Forskolin. […]
(15,000 g), and the supernatants were subjected to ultrafiltration. […] The blood extract was also analyzed by radio-HPLC. For all extracts the ex traction efficiency was determined in a ɣ -counter.

[4] = Biodistribution in Daudi xenograft bearing mice; assay type: in vivo, mouse; conditions: female, CB-17 SCID, mouse, iv, total radioactivity, 48h p.i., means ± SD, n=4-5 animals
Description: as §1, §2

[5] = 1h p.i., tracer only, γ-counter, n=4-5 (68Ga: n=4)

log PO/PBS [1]: -3.0 ± 0.13 | Biodistribution adrenals [2, 5]: 1.16 ± 0.18 %iD/g | Biodistribution blood [2, 5]: 1.50 ± 0.10 %iD/g | Biodistribution colon [2, 5]: 0.78 ± 0.28 %iD/g | Biodistribution femur [2, 5]: 0.86 ± 0.04 %iD/g | Biodistribution heart [2, 5]: 0.90 ± 0.07 %iD/g | Biodistribution kidney [2, 5]: 9.74 ± 0.91 %iD/g | Biodistribution liver [2, 5]: 11.9 ± 1.57 %iD/g | Biodistribution lung [2, 5]: 3.53 ± 1.20 %iD/g | Biodistribution muscle [2, 5]: 0.28 ± 0.02 %iD/g | Biodistribution small intestine [2, 5]: 1.23 ± 0.18 %iD/g | Biodistribution spleen [2, 5]: 2.41 ± 0.34 %iD/g | Biodistribution stomach [2, 5]: 1.72 ± 0.16 %iD/g | Biodistribution tumor (Daudi xenograft) [2, 5]: 18.3±3.7 %iD/g | Initial activity retained in the Daudi xenografts after 48h [2]: ~50% | Stable (intact tracer) in blood, urine and liver homogenates [3]: > 99%
SMILES: C[C@@H](NC(=O)[C@@H](CCCNC(=N)N)NC(=O)CN1CCN(CC(=O)O)CCN(CC(=O)O)CCN(CC(=O)O)CC1)C(=O)Nc1ccc(C(=O)NCCC[C@@H]2C(=O)N[C@@H](CCCNC(=N)N)C(=O)N[C@@H](Cc3ccc4ccccc4c3)C(=O)NCC(=O)N[C@H](Cc3ccc(O)cc3)C(=O)N2C)cc1 [[^177Lu]DOTA-r-a-ABA-CPCR4] [metal not drawn] (cyclo([2Nal]G[dY][dNMeOrn]([4Abz-dA-dR-DOTA])R))

log PO/PBS [1]: -2.8 ± 0.04 | Biodistribution adrenals [2, 5]: 4.54 ± 1.06 %iD/g | Biodistribution blood [2, 5]: 2.90 ± 0.32 %iD/g | Biodistribution colon [2, 5]: 1.19 ± 0.35 %iD/g | Biodistribution femur [2, 5]: 1.92 ± 0.20 %iD/g | Biodistribution heart [2, 5]: 1.87 ± 0.32 %iD/g | Biodistribution kidney [2, 5]: 10.3 ± 0.26 %iD/g | Biodistribution liver [2, 5]: 27.1 ± 1.87 %iD/g | Biodistribution lung [2, 5]: 7.06 ± 0.67 %iD/g | Biodistribution muscle [2, 5]: 0.58 ± 0.07 %iD/g | Biodistribution pancreas [2, 5]: 0.69 ± 0.14 %iD/g | Biodistribution small intestine [2, 5]: 1.44 ± 0.22 %iD/g | Biodistribution spleen [2, 5]: 6.72 ± 0.70 %iD/g | Biodistribution stomach [2, 5]: 1.95 ± 0.17 %iD/g | Biodistribution tumor (Daudi xenograft) [2, 5]: 17.2±2.0 %iD/g | Initial activity retained in the Daudi xenografts after 48h [2]: ~50% | Stable (intact tracer) in blood, urine and liver homogenates [3]: > 99%
SMILES: C[C@@H](NC(=O)[C@@H](CCCNC(=N)N)NC(=O)CN1CCN(CC(=O)O)CCN(CC(=O)O)CCN(CC(=O)O)CC1)C(=O)Nc1ccc(C(=O)NCCC[C@@H]2C(=O)N[C@@H](CCCNC(=N)N)C(=O)N[C@@H](Cc3ccc4ccccc4c3)C(=O)NCC(=O)N[C@H](Cc3ccc(O)c(I)c3)C(=O)N2C)cc1 [[^177Lu]DOTA-r-a-ABA-iodoCPCR4] [metal not drawn] (cyclo([2Nal]G[dTyr(3-I)][dNMeOrn]([4Abz-dA-dR-DOTA])R))

logD ([1]; octanol/PBS): -1.8 ± 0.2 | tissue to tissue ratio at 48 h ([4]; tumor / blood, read-out: Tumor/organ ratio t/blood): 201 ± 27 | tissue to tissue ratio at 48 h ([4]; tumor / colon, read-out: Tumor/organ ratio t/colon): 13 ± 5 | tissue to tissue ratio at 48 h ([4]; tumor / heart, read-out: Tumor/organ ratio t/heart): 31 ± 4 | tissue to tissue ratio at 48 h ([4]; tumor / kidney, read-out: Tumor/organ ratio t/kidney): 2.7 ± 0.4 | tissue to tissue ratio at 48 h ([4]; tumor / lung, read-out: Tumor/organ ratio t/lung): 16 ± 5 | tissue to tissue ratio at 48 h ([4]; tumor / muscle, read-out: Tumor/organ ratio t/muscle): 85 ± 15 | tissue to tissue ratio at 48 h ([4]; tumor / small intestine, read-out: Tumor/organ ratio t/small intestine): 29 ± 6 | tissue to tissue ratio at 48 h ([4]; tumor / spleen, read-out: Tumor/organ ratio t/spleen): 2.1 ± 0.5 | tissue to tissue ratio at 48 h ([4]; tumor / stomach, read-out: Tumor/organ ratio t/stomach): 27 ± 6 | Biodistribution brain ([2]; 1h p.i., tracer only, γ-counter, n=4-5): 0.05 ± 0.01 %iD/g | Biodistribution adrenals [2, 5]: 1.5 ± 0.6 %iD/g | Biodistribution femur [2, 5]: 0.6 ± 0.2 %iD/g | Biodistribution heart [2, 5]: 0.9 ± 0.3 %iD/g | Biodistribution kidney [2, 5]: 3.4 ± 0.6 %iD/g | Biodistribution liver [2, 5]: 10.3 ± 0.8 %iD/g | Biodistribution lung [2, 5]: 2.5 ± 0.7 %iD/g | Biodistribution muscle [2, 5]: 0.3 ± 0.1 %iD/g | Biodistribution pancreas [2, 5]: 0.4 ± 0.1 %iD/g | Biodistribution small intestine [2, 5]: 0.9 ± 0.2 %iD/g | Biodistribution spleen [2, 5]: 1.8 ± 0.3 %iD/g | Biodistribution stomach [2, 5]: 1.2 ± 0.3 %iD/g | Biodistribution tumor (Daudi xenograft) [2, 5]: 12.4±3.7 %iD/g | Biodistribution adrenals ([2]; 6h p.i., n=4-5): 0.64 ± 0.13 %iD/g | Biodistribution blood ([2]; 6h p.i., n=4-5): 0.09 ± 0.01 %iD/g | Biodistribution brain ([2]; 6h p.i., n=4-5): 0.02 ± 0.005 %iD/g | Biodistribution femur ([2]; 6h p.i., n=4-5): 0.23 ± 0.02 %iD/g | Biodistribution heart ([2]; 6h p.i., n=4-5): 0.18 ± 0.02 %iD/g | Biodistribution kidney ([2]; 6h p.i., n=4-5): 2.52 ± 0.33 %iD/g | Biodistribution liver ([2]; 6h p.i., n=4-5): 9.59 ± 0.69 %iD/g | Biodistribution lung ([2]; 6h p.i., n=4-5): 0.42 ± 0.06 %iD/g | Biodistribution muscle ([2]; 6h p.i., n=4-5): 0.06 ± 0.01 %iD/g | Biodistribution pancreas ([2]; 6h p.i., n=4-5): 0.09 ± 0.01 %iD/g | Biodistribution small intestine ([2]; 6h p.i., n=4-5): 0.22 ± 0.04 %iD/g | Biodistribution spleen ([2]; 6h p.i., n=4-5): 1.35 ± 0.41 %iD/g | Biodistribution stomach ([2]; 6h p.i., n=4-5): 0.21 ± 0.01 %iD/g | Biodistribution tumor (Daudi xenograft) ([2]; 6h p.i., n=4-5): 6.79 ± 0.68 %iD/g | Initial activity retained in the Daudi xenografts after 48h [2]: 25% | Biodistribution adrenals ([2]; 48h p.i., n=4-5): 0.56 ± 0.08 %iD/g | Biodistribution blood ([2]; 48h p.i., n=4-5): 0.02 ± 0.001 %iD/g | Biodistribution brain ([2]; 48h p.i., n=4-5): 0.007 ± 0.002 %iD/g | Biodistribution femur ([2]; 48h p.i., n=4-5): 0.22 ± 0.05 %iD/g | Biodistribution heart ([2]; 48h p.i., n=4-5): 0.11 ± 0.01 %iD/g | Biodistribution kidney ([2]; 48h p.i., n=4-5): 1.20 ± 0.13 %iD/g | Biodistribution liver ([2]; 48h p.i., n=4-5): 8.25 ± 2.23 %iD/g | Biodistribution lung ([2]; 48h p.i., n=4-5): 0.21 ± 0.06 %iD/g | Biodistribution muscle ([2]; 48h p.i., n=4-5): 0.04 ± 0.005 %iD/g | Biodistribution pancreas ([2]; 48h p.i., n=4-5): 0.08 ± 0.01 %iD/g | Biodistribution small intestine ([2]; 48h p.i., n=4-5): 0.11 ± 0.02 %iD/g | Biodistribution spleen ([2]; 48h p.i., n=4-5): 1.58 ± 0.33 %iD/g | Biodistribution stomach ([2]; 48h p.i., n=4-5): 0.12 ± 0.02 %iD/g | Biodistribution tumor (Daudi xenograft) ([2]; 48h p.i., n=4-5): 3.27 ± 0.41 %iD/g
SMILES: CN1C(=O)[C@@H](Cc2ccc(O)c(I)c2)NC(=O)CNC(=O)[C@H](Cc2ccc3ccccc3c2)NC(=O)[C@H](CCCNC(=N)N)NC(=O)[C@H]1CCCNC(=O)c1ccc(CNC(=O)CN2CCN(CC(=O)O)CCN(CC(=O)O)CCN(CC(=O)O)CC2)cc1 [[^177Lu]PentixaTher, cyclo(D-3-iodo-Tyr^1-D-[NMe]Orn^2(AMBS-([^177Lu]DOTA)-Arg^3-Nal^4-Gly^5), metal not drawn, reference compound] (cyclo([dTyr(3-I)][dNMeOrn]([4Amb-DOTA])R[2Nal]G))
